Entries after “also recorded” stand apart in the source; their conditions may differ.
Assays:
Type in all cases: cell-based, human
[1] = test system: SUDHL-4 (Eurofins) cells (DLBCL); test: Soluble (shed) BCMA by ELISA
Procedure: (§1) […] cell lines, comprising 9 subtypes of lymphomas (see Table 1), were seeded at 1×10^5 cells/well in a total volume of 250 μl into a 96-well plate. The cells were cultured in RPMI medium supplemented with 10% FCS. Compound (22) was added to the cell cultures at a concentration of 10 μM, 1 μM, 100 nM, 10 nM, 1 nM, 100 pM, 10 pM, 1 pM, and 100 fM, and cell lines (8 from Hadassah Medical Center, 31 from Eurofins) were incubated at 37° C. for 24 hours with Compound (22). Following incubation, the cells were collected and BCMA levels were evaluated on the cell surface for cell-bound BCMA. Cells were stained with an anti-BCMA antibody (PE anti-human 19F2 BCMA, Biolegend), and cell surface BCMA levels were determined by FACS analysis (Mean Fluorescence Intensity. Soluble BCMA levels were analyzed by ELISA (Human BCMA/TNFRSF17 DuoSet kit: R&D Systems).

[2] = test system: Jeko-1 cells (Mantle Cell Lymphoma); test: Soluble (shed) BCMA by ELISA
Procedure: as §1

[3] = test system: U937 cells (Histiocytic Lymphoma); test: Soluble (shed) BCMA by ELISA
Procedure: as §1

[4] = test system: RPMI-6666 cells (Hodgkin's Lymphoma); test: Soluble (shed) BCMA by ELISA
Procedure: as §1

[5] = test system: […] cell lines, comprising 9 subtypes of lymphomas; test: Soluble BCMA by ELISA, lymphoma cell line panel
Procedure: as §1

Cc1cccc2c1NC(=O)[C@@H](NC(=O)[C@H](CCC(F)(F)F)[C@H](CCC(F)(F)F)C(N)=O)N=C2c1cccc(F)c1 [Compound (22), (2R,3S)—N-((3S)-5-(3-fluorophenyl)-9-methyl-2-oxo-2,3-dihydro-1H-1,4-benzodiazepin-3-yl)-2,3-bis(3,3,3-trifluoropropyl)succinamide]
Shed BCMA (pg/ml) % Reduction [1]: 87%
EC50 ([1]; Homo sapiens, SU-DHL-4, read-out: Shed BCMA (pg/ml) EC50): 6.6 nM
EC50 ([2]; Homo sapiens, JeKo-1, read-out: Shed BCMA (pg/ml) EC50): 1.1 nM
soluble BCMA 10 nM Compound (22) ([2]; JEKO-1, 10 nM, 24 h): 338
Shed BCMA (pg/ml) % Reduction ([2]; Jeko-1): 76%
soluble BCMA 1 nM Compound (22) ([2]; Jeko-1, 1 nM, 24 h): 1245.6
soluble BCMA 100 nM Compound (22) ([2]; Jeko-1, 100 nM, 24 h): 305.6
Shed BCMA (pg/ml) % Reduction [3]: BLQ
EC50 ([3]; Homo sapiens, U-937, read-out: Shed BCMA (pg/ml) EC50): > 10000 nM
Shed BCMA (pg/ml) % Reduction [4]: 92%
EC50 ([4]; Homo sapiens, read-out: Shed BCMA (pg/ml) EC50): 9.1 nM
soluble BCMA ([5]; cell lines derived from Mantle Cell Lymphoma, DLBCL, Burkitt's Lymphoma, B-cell Lymphoma, 24 h): reduced soluble BCMA
shedding ([5]; certain lymphomas): abrogates shedding
BCMA shedding ([5]; lymphoma cells): decreases BCMA shedding from some lymphomas; also recorded: inhibits BCMA shedding
soluble BCMA ([5]; some Lymphoma/Leukemia cell lines): Compound (22) decreases soluble BCMA in some Lymphoma/Leukemia cell lines
